± gives the standard deviation of the averaged measurements.
Columns and labels:
Assay in all cases: level (log10 ratio to DMSO vehicle control); higher = higher biomarker level / cell amount than vehicle control
[1] = compound: C=CC(=O)OCC(F)(F)C(F)(F)C(F)(F)C(F)(F)C(F)(F)C(F)(F)C(F)(F)F [1H,1H-Perfluorooctyl acrylate]; conditions: in DMSO
Experimental: (§1)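 BioMAP Diversity Plus panel of 12 human primary cell co-culture systems (3C, 4H, LPS, SAg, BT, BF4T, BE3C, CASM3C, HDF3CGF, KF3CT, MyoF, Mphg). Compounds were added 1 h before stimulation and left for 24 h (MyoF 48 h; BT 72 h for soluble read-outs or 6 d for IgG). Biomarkers were read by ELISA, cytotoxicity by SRB, PBMC viability and proliferation by Alamar Blue. Each well value was divided by the mean of 8 DMSO control wells on the same plate and log10 transformed; duplicate blinded samples were tested at 4 concentrations.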

[2] = compound: CCN(CCO)S(=O)(=O)C(F)(F)C(F)(F)C(F)(F)C(F)(F)C(F)(F)C(F)(F)C(F)(F)C(F)(F)F [N-Ethyl-N-(2-hydroxyethyl)perfluorooctanesulfonamide]; conditions: in DMSO
Experimental: as §1

[3] = compound: FC(F)C(F)(F)COCC1CO1 [((2,2,3,3-Tetrafluoropropoxy)methyl)oxirane]; conditions: in DMSO
Experimental: as §1

[4] = compound: NC(=O)C(F)(F)C(F)(F)C(F)(F)F [Heptafluorobutyramide]; conditions: in DMSO
Experimental: as §1

[5] = compound: O=C(O)C(F)(F)C(F)(F)C(F)(F)C(F)(F)C(F)(F)C(F)(F)C(F)(F)C(F)(F)C(F)(F)F [Perfluorodecanoic acid]; conditions: in DMSO
Experimental: as §1

[6] = compound: O=C(O)C(F)(F)C(F)(F)F [Perfluoropropanoic acid]; conditions: in DMSO
Experimental: as §1

[7] = compound: OCCCC(F)(F)C(F)(F)C(F)(F)C(F)(F)C(F)(F)C(F)(F)C(F)(F)F [7:3 Fluorotelomer alcohol]; conditions: 6700 nM; in DMSO
Experimental: as §1

Row | Test System | level (log10) ([1]; 6700 nM) | level (log10) ([1]; 20000 nM) | level (log10) ([1]; 60000 nM) | level (log10) ([2]; 6700 nM) | level (log10) ([2]; 20000 nM) | level (log10) ([3]; 6700 nM) | level (log10) ([3]; 20000 nM) | level (log10) ([3]; 60000 nM) | level (log10) ([4]; 6700 nM) | level (log10) ([4]; 20000 nM) | level (log10) ([4]; 60000 nM) | level (log10) ([5]; 6700 nM) | level (log10) ([5]; 20000 nM) | level (log10) ([6]; 6700 nM) | level (log10) ([6]; 20000 nM) | level (log10) ([6]; 60000 nM) | level (log10) [7]
1 | LPS:CD141/Thrombomodulin | -0.0365 ± 0.0021 | -0.052 ± 0.013 | -0.052 ± 0.011 | 0.117 ± 0.0042 | 0.201 | 0.0055 ± 0.016 | -0.003 ± 0.03 | -0.049 ± 0.013 | -0.018 ± 0.05 | -0.0175 ± 0.064 | -0.0175 ± 0.035 | 0.0035 ± 0.00071 | 0.002 ± 0.0057 | -0.003 ± 0.027 | -0.007 ± 0.0057 | 0.013 ± 0.0057 | -0.0025 ± 0.013
2 | BE3C:CXCL10/IP-10 | 0.0315 ± 0.015 | 0.0195 ± 0.005 | 0.0235 ± 0.023 | -0.051 ± 0.0028 | -0.141 ± 0.028 | -0.007 ± 0.011 | -0.0125 ± 0.016 | 0.002 ± 0.0099 | -0.0025 ± 0.00071 | -0.0175 ± 0.012 | 0.0075 ± 0.018 | -0.188 ± 0.088 | -1.16 | -0.0125 ± 0.019 | 0.0035 ± 0.022 | 0.014 ± 0.025 | 0.011 ± 0.024
3 | BF4T:MMP-9 | 0.0065 ± 0.028 | 0.0035 ± 0.016 | 0.015 ± 0.033 | -0.012 ± 0.014 | -0.032 ± 0.0014 | 0.0055 ± 0.005 | -0.01 ± 0.0042 | 0.0065 ± 0.013 | 0.014 ± 0.017 | 0.0035 ± 0.039 | 0.011 ± 0.04 | -0.025 ± 0.0057 | -0.282 ± 0.023 | -0.0065 ± 0.036 | -0.0065 ± 0.037 | 0.0035 ± 0.032 | -0.0235 ± 0.018
4 | BF4T:CD90 | -0.013 ± 0.014 | -0.003 ± 0.0028 | -0.004 ± 0.031 | -0.013 ± 0.0099 | -0.0145 ± 0.005 | -0.006 ± 0.03 | 0.004 ± 0.0057 | 0.014 ± 0.016 | 0.002 ± 0.013 | -0.008 ± 0.0085 | 0.003 ± 0.0042 | 0.003 ± 0.0042 | -0.0955 ± 0.0064 | -0.003 ± 0.014 | 0.003 ± 0.0014 | 0 ± 0.016 | -0.004 ± 0.0028

— the supplement of paper PMC10331698
